This is an account of results in ChEMBL document CHEMBL1914340, “Effect of the leukotriene A4 hydrolase aminopeptidase augmentor 4-methoxydiphenylmethane in a pre-clinical model of pulmonary emphysema” (Bioorg Med Chem Lett, 2011).

Activity calls are given as the source filed them. The calls are words filed in the database; no cut-off is given here.

In data set [1] the target is T1, Leukotriene A-4 hydrolase (Homo sapiens) (UniProt P09960).
T1 sequence (whole entry): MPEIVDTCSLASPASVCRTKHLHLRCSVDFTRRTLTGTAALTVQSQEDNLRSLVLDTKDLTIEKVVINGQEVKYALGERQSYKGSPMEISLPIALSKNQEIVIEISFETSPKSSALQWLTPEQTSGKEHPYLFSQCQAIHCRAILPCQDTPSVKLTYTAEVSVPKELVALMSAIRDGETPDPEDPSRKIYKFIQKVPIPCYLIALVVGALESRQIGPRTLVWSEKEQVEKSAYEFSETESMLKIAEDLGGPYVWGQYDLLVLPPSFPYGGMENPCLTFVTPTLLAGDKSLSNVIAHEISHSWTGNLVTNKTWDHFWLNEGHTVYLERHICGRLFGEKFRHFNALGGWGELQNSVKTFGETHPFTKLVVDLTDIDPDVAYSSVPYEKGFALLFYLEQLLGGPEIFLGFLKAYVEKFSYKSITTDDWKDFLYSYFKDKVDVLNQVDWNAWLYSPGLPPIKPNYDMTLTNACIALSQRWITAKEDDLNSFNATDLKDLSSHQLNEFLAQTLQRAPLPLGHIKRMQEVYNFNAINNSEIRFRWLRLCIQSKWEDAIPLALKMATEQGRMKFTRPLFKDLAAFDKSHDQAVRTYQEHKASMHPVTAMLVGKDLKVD
Nature of the data set: Activation of aminopeptidase activity of LTA4H assessed as compound concentration required to 50% activation using L-alanine-p-nitroanilide as substrate by spectrophotometry.

Data set [2] in a line: Chemical stability of the compound assessed as degradation at pH 6.8. The format is physicochemical. The settings on record: buffer.
Data set [3] has as its system Mus musculus. Nature of the data set: Antiemphysema activity in wild type mouse assessed as reduction in intranasal elastase-induced lung compliance at 30 mg/kg, ip qd for 28 days by flexivent relative to vehicle-treated control. The format is functional, organism-based. Set-up: dose 30 mg/kg.
The subject of data set [4] is Mus musculus. Kind of data set: Effect on intransal elastase-induced LTB4 level in broncho alveolar lavage fluid in ip dosed mouse by ELISA (reference value: 93.1 +/- 26.1 pg/mL). The format is functional, organism-based.
For data set [5], the system named is Mus musculus. Nature of the data set: Antiemphysema activity in wild type mouse assessed as shorter chord length at 30 mg/kg, ip qd for 28 days measured after 18 hrs of post mortem by volume displacement technique relative to vehicle-treated control. The format is functional, organism-based. Set-up: dose 30 mg/kg.
Data set [6] concerns Mus musculus. Nature of the data set: Antiemphysema activity in wild type mouse assessed as reduction in intranasal elastase-induced lung volume at 30 mg/kg, ip qd for 28 days measured after 18 hrs of post mortem by volume displacement technique relative to vehicle-treated control. The format is functional, organism-based. Also on record: dose 30 mg/kg.
Data set [7] in a line: Toxicity in mouse. The format is organism-based. The settings on record: in vivo.

Turning to `COc1ccc(Cc2ccccc2)cc1`, the Activity in data set [1] amounted to 50 µM. Also, the Stability entry in data set [2] is listed as “Stable”. Besides, the result with Mus musculus [3], in the data set on Mus musculus [5] and with Mus musculus [6] was Active. Moreover, the outcome in the data set with Mus musculus [4] was inactive.
With `COc1ccc(Oc2ccccc2)cc1`, the Stability entry in data set [2] was “Unstable”. The molecule further had an MTD in data set [7] of 30 mg/kg.
